According to patent publication US8017318B1, “Method for detecting and/or quantifying a known function from a nucleic acid sample” (priority 1998, dated 2011):

Biological target: T1, β-lactamase TEM-1 (Escherichia coli, UniProt P62593)
T1 construct: made in house; host or cells: cell-free in vitro translation as described by Zubay (microbial system)
Experiment: "resistance to clavulanic acid" beta-lactamase activity test with nitrocephine on in vitro translated enzyme
Format: biochemical
Conditions: sample 1 (100% germs resistant to antibiotics only, 0% double resistance); 1 μl clavulanic acid, 3 minutes at 25° C., then nitrocephine; 486 nm
Protocol: 10 μl of culture at DO600.2.3 were centrifuged and each pellet was resuspended into 12 μl of cellular lysis buffer (10 mM Tris HCl pH 7.5, 1 mM EDTA, 50 μg/ml proteinase K) and incubated 15 minutes at 55° C. then 15 minutes at 80° C. 9 μl of each of these lysates was added to a PCR amplification mixture that permitted amplification of the gene conferring monoresistance and of the gene conferring polyresistance, as well as of the sequences permitting their in vitro expression. 5 μl of each PCR amplification were used to carry out an in vitro transcription as described by Gurevich et al. (Gurevich V. A., Pokrovskaya I. D., Obukhova T. A. and Zozulya S., 1991, Preparative in vitro mRNA synthesis using SP6 and T7 polymerases, Anal. Biochem., 195, 207-213) 10 μl of each transcription was used to translate in vitro the proteins as described by Zubay (Zubay G., 1973, In vitro synthesis of protein in microbial systems, Ann. Rev. Genet., 7, 267-287) to a final volume of 100 μl
Two types of activity tests were carried out: • A measurement of the “total” beta-lactamase activity by using as substrate a chromogenic antibiotic: nitrocephine. […] The reaction was followed by monitoring absorbance changes at 486 nm. • A measurement of the “resistance to clavulanic acid” activity by using as substrate a chromogenic antibiotic: nitrocephine and a given concentration of clavulanic acid. […]

T1 sequence (P62593 24-286 limits assumed): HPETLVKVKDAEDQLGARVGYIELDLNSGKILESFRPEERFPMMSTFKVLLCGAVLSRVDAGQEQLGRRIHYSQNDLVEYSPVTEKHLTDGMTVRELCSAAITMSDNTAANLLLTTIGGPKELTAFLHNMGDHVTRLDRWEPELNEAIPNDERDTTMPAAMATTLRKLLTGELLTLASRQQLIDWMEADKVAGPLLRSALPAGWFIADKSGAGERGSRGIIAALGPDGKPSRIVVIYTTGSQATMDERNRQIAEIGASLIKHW

## O=C(O)[C@H]1/C(=C/CO)O[C@@H]2CC(=O)N21 [clavulanic acid]
  beta-lactamase activity detected in the presence of clavulanic acid: no activity is detected
